In patent US8153694B2, “Cyclopropanecarboxylic acid compound” (Takeda Pharmaceutical Company Limited, priority 2005, dated 2012):
Where a name gives a salt, the structure may show the parent alone.

Biological target: T1, human GPR40 (Homo sapiens, UniProt O14842)
T1 construct: expressed in transfected cells; host or cells: CHO cell line stably expressing human GPR40
Assay: Receptor function modulating action (agonist action) against human-derived GPR40: intracellular calcium change by FLIPR in CHO cells stably expressing human GPR40
Type: cell-based
Experimental: Receptor Function Modulating Action (Agonist Action) against Human-Derived GPR40 For determination of agonist activity, CHO cell line that stably expressed human GPR40 was used. […] The cells cultured to nearly confluent were rinsed with PBS (Invitrogen) on the previous day of the assay, peeled off with EDTA ([…], Wako Junyaku) and recovered by centrifugation. The number of the obtained cells was counted, and the cells were diluted such that 3×10^5 cells were contained per 1 mL of the medium, dispensed to a 96 well black clear bottom plate (coaster) by 100 μL per well and cultured overnight in a CO2 incubator. Various test compounds were added to the CHO cells thus prepared, and the changes in the intracellular calcium concentration were measured using FLIPR (Molecular Device). The below-mentioned pre-treatment was applied to measure changes in the intracellular calcium concentration by FLIPR. […] A fluorescence dye solution was prepared by adding 500 μM probenecid dissolved in 1N NaOH to the assay buffer to a final concentration of […], and adding the solution (10 mL) to 1 vial of component A (Molecular Device). One day before the assay, the medium of CHO cells re-plated on a 96 well black clear bottom plate was removed, and the cells were washed with D-PBS(−). […] Then, the fluorescence dye solution was dispensed by 100 μL per well, and the cells were cultured in a CO2 incubator for 1 hr to allow uptake of the fluorescence dye by the cells. During this period, the test compound was diluted to a given concentration with the assay buffer, and dispensed to a polypropylene 96-well plate (sample plate) by 100 μL. The cell plate and the sample plate were simultaneously set on FLIPR. After the above-mentioned pre-treatment, variation in the intracellular calcium concentration after addition of various test compounds (50 μL) was measured by FLIPR.

[1] = agonist activity of each compound at 1 μM, relative to the activity of 10 μM γ-linolenic acid as 100%, CHO cell line stably expressing human GPR40

T1 sequence (O14842 whole entry): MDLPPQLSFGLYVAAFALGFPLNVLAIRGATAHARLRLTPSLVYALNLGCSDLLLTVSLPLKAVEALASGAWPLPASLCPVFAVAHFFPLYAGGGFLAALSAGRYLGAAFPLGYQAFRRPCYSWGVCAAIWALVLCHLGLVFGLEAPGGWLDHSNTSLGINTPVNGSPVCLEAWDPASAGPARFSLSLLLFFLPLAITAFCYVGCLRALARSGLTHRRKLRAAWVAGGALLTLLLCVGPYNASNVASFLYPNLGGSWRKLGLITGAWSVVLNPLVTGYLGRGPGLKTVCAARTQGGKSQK

Compound	Relative activity value [1] [%]	also measured
CCOCCOc1cc(C)c(-c2cccc(COc3ccc(C4CC4C(=O)O)cc3)c2)c(C)c1 (centres unmarked) [Example 3, 2-(4-{[4′-(2-ethoxyethoxy)-2′,6′-dimethylbiphenyl-3-yl]methoxy}phenyl)cyclopropanecarboxylic acid calcium salt]	–	Relative activity value (agonist activity of each compound at 1 μM, relative to the activity of 10 μM γ-linolenic acid as 100%, CHO cell line stably expressing human GPR40, calcium salt): 103%
CCOCCOc1cc(C)c(-c2cccc(COc3ccc(C4CC4C(=O)O)cc3)c2)c(C)c1 (centres unmarked) [Example 2, 2-(4-{[4′-(2-ethoxyethoxy)-2′,6′-dimethylbiphenyl-3-yl]methoxy}phenyl)cyclopropanecarboxylic acid]	111	–
CCCCC/C=C\C/C=C\C/C=C\CCCCC(=O)O [γ-linolenic acid, reference compound]	–	Relative activity value (reference: activity of 10 μM γ-linolenic acid (GPR40 agonist) set as 100%, CHO cell line stably expressing human GPR40): 100%

More lines, main results first:

Relative activity value [1] [%]	Compound	also measured
99	CC(C)CCN(Cc1ccc(COc2ccc(C3CC3C(=O)O)cc2)cc1)c1nc(-c2ccc(C(F)(F)F)cc2)cs1 (centres unmarked) [Example 9]	–
109	O=C(O)C1CC1c1ccc(OCc2cccc(Oc3ccccc3)c2)cc1 (centres unmarked) [Example 13, 2-{4-[(3-phenoxybenzyl)oxy]phenyl)cyclopropanecarboxylic acid]	–
108	Cc1cc(OC2CCS(=O)(=O)CC2)cc(C)c1-c1cccc(COc2ccc(C3CC3C(=O)O)cc2)c1 (centres unmarked) [Example 5, 2-[4-({4′-[(1,1-dioxidotetrahydro-2H-thiopyran-4-yl)oxy]-2′,6′-dimethylbiphenyl-3-yl}methoxy)phenyl]cyclopropanecarboxylic acid]	–
119	Cc1cc(OCC2(C)COC2)cc(C)c1-c1cccc(COc2ccc(C3CC3C(=O)O)cc2)c1 (centres unmarked) [Example 7, 2-[4-({2′,6′-dimethyl-4′-[(3-methyloxetan-3-yl)methoxy]biphenyl-3-yl}methoxy)phenyl]cyclopropanecarboxylic acid]	–
114	CCCN(Cc1ccc(COc2ccc(C3CC3C(=O)O)cc2)cc1)c1nc(-c2ccc(C(F)(F)F)cc2)cs1 (centres unmarked) [Example 11, 2-[4-({4-[(propyl{4-[4-(trifluoromethyl)phenyl]-1,3-thiazol^-2-yl}amino)methyl]benzyl}oxy)phenyl]cyclopropanecarboxylic acid]	–
